Test results published in US20250012803A1, “METHODS FOR ASSESSING AN IMMUNE RESPONSE AND PREDICTING CANCER RECURRENCE AND ASSESSMENT OF CURRENT AND PRIOR CANCER STATUS” (priority 2021, published 2025).
“And” between values parts separate entries of the source, which are not always exact repeats. Equal entries are not always repeated.

Tests used:
Assay type in all cases: in vivo, human
[1] = system: node-positive and high-risk node-negative breast cancer patients with tumors expressing any degree of HER2; assay: Phase IIb trial (NCT00524277): disease-free survival / breast cancer recurrence
Description: Background for Examples 1-5: Delayed type hypersensitivity (DTH) skin tests in the randomized, active-controlled, single-blinded, multicenter Phase IIb trial investigating GLSI-100 (GP2+GM-CSF) administered in the adjuvant setting to node-positive and high-risk node-negative breast cancer patients with tumors expressing any degree of HER2 (immuno-histochemistry [IHC] 1-3+) (NCT00524277) were analyzed. The trial enrolled HLA-A*02 patients randomized to receive GLSI-100 versus GM-CSF alone. The trial's primary objective was to determine if treatment with GLSI-100, a HER2-derived peptide, reduces recurrence rates.
(§1) Methods: Consented patients were randomized and scheduled to receive GLSI-100 (500 microgram (mcg) GP2: 125 mcg GM-CSF) or control (GM-CSF only) via 6 intradermal injections every 3-4 weeks as part of the Primary Immunization Series (PIS) for the first 6 months and 4 booster intradermal injections every 6 months thereafter. […] DTH skin tests were assessed at baseline and after the 6th dose with the orthogonal mean of each skin reaction measured 48-72 hours after injection using the sensitive ballpoint-pen method.
Results: The study enrolled 180 patients across 16 clinical sites with both HER2 3+ positive and low HER2 expressors (1-2+). […] Injection site reactions were common, occurring in almost 100% of patients treated with either GLSI-100 or GM-CSF alone. […]

[2] = system: breast cancer patients (DTH immune response to GP2); assay: Delayed type hypersensitivity (DTH) skin test to GP2
Description: as §1
(§2) A DTH reaction was used to assess in vivo immune responses in patients (n=150) prior to exposure to study medication and after 6 months of the first dose. The DTH orthogonal mean was measured 48-72 hours after injection using the sensitive ballpoint-pen method. DTH reactions after the PIS were greater compared to baseline DTH reactions.
as §2, with “method. GP2” for “method.”, “response increases in patients” for “reactions”, “treatment with GLSI-100.” for “the PIS were greater compared to baseline DTH reactions.”
Injection site reactions (ISR) were measured 48-72 hours after injection. Delayed-type hypersensitivity (DTH) to GP2 was performed at baseline and after 6 months of treatment. For the DTH test, 0.5 mL consisting of 100 mcg of GP2 reconstituted in bacteriostatic saline for injection was placed intradermally. The DTH reaction was measured 48-72 hours after injection.
The orthogonal mean of the largest diameter of the injection site was measured 48-72 hours after injection. A DTH reaction was used to assess in vivo immune responses in patients prior to exposure to study medication and after 6 months of the first dose. The DTH orthogonal mean was measured 48-72 hours after DTH placement using the sensitive ballpoint-pen method. DTH reactions increase after the PIS compared to baseline DTH reactions.
GP2 DTH skin tests were placed at baseline and after the 6th dose. After 48-72 hours, the largest perpendicular diameters of induration were measured and the orthogonal mean was calculated. Induration of over 5 mm was considered a positive response. The relationship between prognostic factors such as demographic and disease characteristics and the baseline DTH response were investigated by logistic regression.

[3] = system: breast cancer patients (injection site); assay: Injection site reaction (ISR) measurement, orthogonal mean
[4] = system: breast cancer patients; assay: Phase IIb trial safety / tolerability; conditions: patients treated with either GLSI-100 or GM-CSF alone
Description: as §1
Results: The study enrolled 180 patients across 16 clinical sites with both HER2 3+ positive and low HER2 expressors (1-2+). […] Injection site reactions were common, occurring in almost 100% of patients treated with either GLSI-100 or GM-CSF alone. Previous publications have reported the increase in DTH response reported among patients after treatment with GLSI-100.

Row | Substance | Time to Recurrence ([1]; individual patients who experienced breast cancer recurrence) | patients reacting to GP2 at baseline (positive DTH, induration of 5 mm or greater) ([2]; baseline, prior to any GP2 treatment, all patients (33/145)) [%] | patients with positive baseline DTH response to GP2 in subgroup with later breast cancer recurrence ([2]; baseline, recurrence subgroup (8/22)) [%] | 6 Month DTH (mm) ([2]; individual recurring patients, after 6 months of treatment) | Baseline DTH (mm) ([2]; individual recurring patients, prior to exposure to study medication) | median orthogonal mean induration of injection site reaction ([3]; after a single dose, p=0.0036) [mm] | average difference in injection site reaction, HER2 3+ vs HER2 1-2+ control patients ([3]; over all 10 doses, HER2 3+ smaller) [mm] | Kaplan-Meier estimated 5-year disease-free survival (DFS) rate ([1]; HER2 3+ patients followed 6 months or more and disease-free over first 6 months, 5 years follow-up, p=0.0338) [%] | DTH reaction after the Primary Immunization Series (orthogonal mean) ([2]; after 6 months, measured 48-72 hours after injection, p=0.009) [mm] | patients with injection site reactions [4] [%]
1 | Ile Ile Ser Ala Val Val Gly Ile Leu (IISAVVGIL) [GP2] | 28 days and 99 days and 66 days and 820 days and 265 days and 498 days and 507 days and 366 days and 590 days and 141 days and 79 days and 76 days and 1295 days | 22.8 | 36.4 | 24 mm and 20 mm and 16 mm and 15 mm and 3 mm and 0 mm and 25 mm | 9 mm and 8 mm and 7 mm and 0 mm (8×) and 43 mm and 13 mm | – | – | – | – | –
2 | granulocyte-macrophage colony-stimulating factor [GM-CSF] | – | – | – | – | – | 7.8 | 43.1 | 89.4 | 0.0 | ~100
